# Source: article PMC3353318 (Bioorganic & Medicinal Chemistry, 2011)
# Several values for one entry are separate records, joined by “and”; a condition that tells them apart may be missing. Equal values may be shown once. Entries after “also recorded” stand apart in the source; their conditions may differ. Read-outs that look alike come from different tables or passages of the source.
# What was measured:
# NMDA receptors = assay type: cell-based, rat
# [1] = cited from earlier work
# [2] = test system: bloodstream form T. brucei (strain 427); assay type: cell-based, Trypanosoma brucei
# VSV in HEL cells = assay type: cell-based, vesicular stomatitis virus
# [3] = test system: vesicular stomatitis virus (VSV) in HeLa cells; conditions: for EC50: read-out: EC50 (50% antiviral effective concentration) against VSV
# [4] = test system: influenza A/Puerto Rico/8/34 (H1N1); assay: Influenza virus assay, A/H1N1; assay type: cell-based; conditions: read-out: antiviral EC50 against influenza A/H1N1 subtype
# [5] = read-out: IC50, Glutamate (100 μM)
molecule,measurement,setting,value
"6,7,8,9,10,11-Hexahydro-9-methyl-5,7:9,11-dimethano-5H-benzocyclononen-7-amine hydrochloride [Compound 3]",IC50,NMDA receptors; [5],22 ± 3.9 µM
same,IC50,"NMDA receptors; read-out: IC50, NMDA (100 μM)",13.6 ± 3.4 µM
c1ccc(CNC23OC4C5C6CC(C7C6C4C72)C53)cc1 (stereo not shown) [NGP1-01],stability in aqueous medium (in words),[1],decomposes easily in aqueous medium
"N,N-Dimethyl-6,7,8,9,10,11-hexahydro-9-methyl-5,7:9,11-dimethano-5H-benzocyclononen-7-amine hydrochloride [Compound 11]",inhibitory activity against cultured bloodstream form T. brucei (in words),[2]; at 5 μg mL^−1 (15–20 μM),little or no inhibitory activity
same,IC50,NMDA receptors; [5],87 ± 28 µM
same,IC50,"NMDA receptors; read-out: IC50, NMDA (100 μM)",12 µM and 11.8 µM
"N,N-dipropargyl-6,7,8,9,10,11-hexahydro-9-methyl-5,7:9,11-dimethano-5H-benzocyclononen-7-amine hydrochloride [Compound 10]",activity against VSV in HEL cells (in words),VSV in HEL cells,not active
same,selectivity index (ratio of cytotoxic to antiviral concentration),[3],25
same,EC50,[3],4 µM
"N-(6,7,8,9,10,11-hexahydro-9-methyl-5,7:9,11-dimethano-5H-benzocyclononen-7-yl)piperidine hydrochloride [Compound 12]",activity against VSV in HEL cells (in words),VSV in HEL cells,not active
same,IC50,NMDA receptors; [5],> 500 µM
same,EC50,[3],54 µM
"N-Benzyl-6,7,8,9,10,11-hexahydro-9-methyl-5,7:9,11-dimethano-5H-benzocyclononen-7-amine hydrochloride [Compound 6]",IC50,[2]; read-out: IC50 against cultured bloodstream form T. brucei,3 ± 0.32 µM
same,IC90,[2]; read-out: IC90 against cultured bloodstream form T. brucei,6.55 ± 0.32 µM
same,EC50,[4],10 µM
same,NMDA receptor antagonist activity (in words),NMDA receptors,devoid of activity; also recorded: not active as NMDA receptor antagonist
"N-Benzyl-N-methyl-6,7,8,9,10,11-hexahydro-9-methyl-5,7:9,11-dimethano-5H-benzocyclononen-7-amine hydrochloride [Compound 7]",NMDA receptor antagonist activity (in words),NMDA receptors,devoid of activity
"N-Methyl-6,7,8,9,10,11-hexahydro-9-methyl-5,7:9,11-dimethano-5H-benzocyclononen-7-amine hydrochloride [Compound 8]",IC50,NMDA receptors; [5],455 ± 216 µM
same,IC50,"NMDA receptors; read-out: IC50, NMDA (100 μM)",19.4 ± 3.3 µM
"N-Propargyl-6,7,8,9,10,11-hexahydro-9-methyl-5,7:9,11-dimethano-5H-benzocyclononen-7-amine hydrochloride [Compound 9]",IC90 lower than that of rimantadine (fold),[2]; versus rimantadine,more than 4 times
same,IC50,NMDA receptors; [5],> 500 µM
same,IC50,"NMDA receptors; read-out: IC50, NMDA (100 μM)",27.5 ± 13.2 µM
